Experiment [1] addresses purified human, His-tagged PRC2 complex (Homo sapiens (Human), UniProt O75530). Briefly: Hot Spot HMT assay of PRC2 enzymatic activity (tritiated methyl transfer from SAM to core histone). Type of experiment: biochemical. Particulars: 10 nM purified PRC2 complex, 0.05 mg/ml core histone H3, 1 uM 3H-SAM, 1 hr at 30° C. The method, then: Ten-point dose-response curves for compounds of the present invention were determined using a Hot Spot HMT assay (Reaction Biology Corp; see Horiuchi et al., Assay Drug Dev Technol. (2013) 4: 227-236 doi: 10.1089/adt.2012.480). The assay uses purified human, His-tagged PRC2 complex, including N-terminal His-tagged EZH2 enzyme, N-terminal Flag-tagged embryonic ectoderm development protein (EED), N-terminal His-tagged suppressor of zeste 12 (SUZ12), N-terminal His-tagged AEBP2, and N-terminal His-tagged RbAp48. In this assay, the transfer of the tritiated methyl group from radiolabeled S-adenosyl methionine (SAM) to purified core histone protein by EZH2 is quantitated after filtration to determine the activity of the core PRC2 complex in the presence and absence of compound.
Briefly, compounds of the present invention were solubilized in DMSO and a series of 10, three-fold serial dilutions were made for each compound in 15% DMSO. The initial starting concentration for the serial dilutions of each compound was 1.0 μM. Control samples lacking compound, EZH2 enzyme or various reaction components also were prepared and processed in parallel with compound test samples. SAH (S-(5-adenosyl)-L-homocysteine) was used as a positive control for assay validation.
An aliquot of each serial dilution of test compound was added to deep 384 well plate using Acoustic Technology instrument (Echo 550, LabCyte) containing reaction buffer (50 mM Tris-HCl (pH 8.)), 0.01% Brij35, 1 mM EDTA, 1 mM DTT, 1 mM PMSF and 1% DMSO), 10 nM purified PRC2 complex and 0.05 mg/ml core histone H3 in a 5 μl volume. The reaction was mixed gently and then pre-incubated for 20 min at 30° C. The enzymatic reaction was initiated by adding 1 uM S-Adenosyl-L-[methyl ^3H]methionine and incubated for 1 hr at 30° C. After 1 hr, the reaction product was detected using a filter binding method and the amount of tritiated H3 core histone was quantitated using a scintillation counter. The IC50 value for each compound was determined from each 10-point dose-response curve using GraphPad Prism software and the results for exemplary compounds of Formula (I) are shown in Table 5. Key: A=≤250 nM; B=>250 nM—≤500 nM; and C=>500 nM—≤2 μM.

Experiment [2] has as its system PRC2-mediated histone H3 methylation (H3 Lys27 trimethylation) in Pfeiffer cells expressing mutant EZH2 (A677G). Briefly: Tri-Methyl Histone H3 (Lys 27) sandwich ELISA in Pfeiffer cells. The experiment is classed as cell-based, human. As to conditions: read-out: IC50, Inhibition of EZH2-mediated Histone H3 Trimethylation. The text has this:
The Pfeiffer cell line was established from a […] from a patient having metastatic diffuse large B-cell lymphoma (DLBCL). This cell line expresses a mutant form of the EZH2 enzyme (A677G) that results in enhanced EZH2 activity leading to increased methylation of histone H3 Lys27. Increased trimethylation of histone H3 Lys27 is believed to be implicated in tumorgenesis and poor clinical prognosis in lymphomas (McCabe et al., (2012) Nature 492:108-112).
Inhibition of PRC2-mediated histone H3 methylation by compounds of Formula (I) was measured by ELISA using a Tri-Methyl Histone H3 (Lys 27) Sandwich ELISA Kit (Cell Signaling Tech #7866C) in accordance with the manufacturer's instructions. Briefly, Pfeiffer cells were cultured in RPMI medium supplemented with 10% fetal bovine serum and 1% penicillin and 1% streptomycin in 96 well culture plates at 37° C. to a density of 8000 cells/90 μl/well and the cells were harvested. A series of 3-fold serial dilutions of each test compound of Formula (I) were prepared in RPMI medium and added to the cells at final concentrations ranging from 1 μM to 0.15 nM. The plates were incubated at 37° C. for 96 hours.
After incubation, the cells were pelleted by centrifugation in a pre-cooled 4° C. rotor at 1,100 rpm for 10 min and the supernatant was removed by aspiration. The cell pellet was resuspended in 55 μl of Lysis Buffer (0.4M HCl) and incubated on ice with periodic shaking for 30 minutes. The lysed cells were subjected to centrifugation at 4,200 rpm for 10 min at 4° C. and the supernatant containing acid-soluble proteins was collected and the remainder discarded. The acid-soluble proteins were brought to a neutral pH by the addition of 20 μl of Neutralization Buffer (1 M Sodium phosphate, dibasic (pH 12.5), 2.5 mM DTT and 1 mM PMSF) and the neutralized lysates were analyzed by ELISA.
A 65 μl aliquot of each cell lysate was added to a well of a microwell strip, the microwells were sealed using tape and incubated either at 37° C. for two hours or at 4° C. overnight. After incubation, the tape was removed at the microwells were washed four times using 200 μl of 1× Wash Buffer. To each washed microwell, a 100 μl aliquot of an anti-trimethyl histone H3 Lys27 Detection Antibody solution was added and the microwells were incubated at 37° C. for one hour. The Detection Antibody solution was removed by aspiration and the wells were washed four times each using 200 μl of 1× Wash Buffer.
A 100 μl aliquot of an HRP-linked secondary antibody was added to each well, the wells were sealed with tape and incubated at 37° C. for 30 min. The HRP-linked secondary antibody solution was removed by aspiration and the wells were washed four times using 200 μl of 1× Wash Buffer. A 100 μl aliquot of a TMB substrate was added to each well, the wells were sealed with tape and incubated at 37° C. for 10 min or 25° C. for 30 min. The reaction was stopped by the addition of 100 μl aliquot of a STOP solution and the plate was shaken briefly. The degree of histone H3 trimethylation was determined using a spectrophotometric readout by measuring the absorbance at 450 nm and then calculating the amount of trimethylated histone H3. Key: A=≤250 nM; B=>250 nM-≤500 nM; and C=>500 nM-≤5 μM.
A general note: ELISA stands for enzyme-linked immunosorbent assay.

Experiment [3] relates to Karpas 422 cells expressing mutant EZH2 (Y641N). Briefly: Karpas 422 cell viability (Cell Titre Glo) assay. The experiment is classed as cell-based, human. Particulars: CTG viability, time point (Day 4, Day 7 or Day 11) not given, read-out: IC50, Inhibiting Proliferation of Cells Expressing an Activating Mutant Form of EZH2. The protocol: Karpas 422 cell line is a human B cell non-Hodgkin's lymphoma cell line established from a patient having DLBCL. This EZH2 heterozygotic cell line expresses a mutant form of EZH2 enzyme (Y641N) that increases histone H3 methylation and this mutation has been implicated in the tumorgenesis of lymphomas, such as DLBCL.
Karpas 422 cells (PHE cat no., 06101702) were cultured in RPMI medium supplemented with 20% fetal bovine serum and 1% penicillin/1% streptomycin and plated at a density of 1000 cells/90 μl/well in 96 well white assay plates. A dose response curve for compounds of the present invention was determined by adding a 10 μl aliquot of stock solutions of varying concentrations of compounds to the same medium in each well, over a concentration range of 10 μM using 3-fold dilutions to a final concentration of 1.5 nM. The plates were incubated at 37° C. for predetermined time periods, Day 4, Day 7, or Day 11, and the viability of the cells was measured using a CTG assay kit (Cell Titre Glo; Promega cat. no G7573) on Day 4 and Day 7 in accordance with the manufacturer's instructions.
For the viability assay for the Day 11 plates, the plates were subjected to centrifugation at 1100 rpm for five minutes on Day 7 and the supernatant was removed by aspiration. The cells were resuspended in 90 μl aliquot of the appropriate growth medium lacking the compound followed by addition of 10 μl of a 10× stock of the same compound at the same concentration. The viability of the Day 11 cells was measured using the CTG assay kit described above in accordance with the manufacturer's instructions. The IC50 values for each compound at each predetermined time point were calculated using Graph pad PRISM software and the results are shown in Table 7. Key: A=≤250 nM; B=>250 nM-≤500 nM; C=>500 nM-≤5 μM and N.D.=not determined.

The mark [4] stands for this setting: read-out: IC50, Inhibition of PRC2-mediated Enzymatic Activity.
The mark [5] stands for this setting: Homo sapiens, Pfeiffer cells, 96 hours incubation, ELISA.

Where two headings read alike, the source gives them in different places.

purified human, His-tagged PRC2 complex, sequence (Q15910 whole entry): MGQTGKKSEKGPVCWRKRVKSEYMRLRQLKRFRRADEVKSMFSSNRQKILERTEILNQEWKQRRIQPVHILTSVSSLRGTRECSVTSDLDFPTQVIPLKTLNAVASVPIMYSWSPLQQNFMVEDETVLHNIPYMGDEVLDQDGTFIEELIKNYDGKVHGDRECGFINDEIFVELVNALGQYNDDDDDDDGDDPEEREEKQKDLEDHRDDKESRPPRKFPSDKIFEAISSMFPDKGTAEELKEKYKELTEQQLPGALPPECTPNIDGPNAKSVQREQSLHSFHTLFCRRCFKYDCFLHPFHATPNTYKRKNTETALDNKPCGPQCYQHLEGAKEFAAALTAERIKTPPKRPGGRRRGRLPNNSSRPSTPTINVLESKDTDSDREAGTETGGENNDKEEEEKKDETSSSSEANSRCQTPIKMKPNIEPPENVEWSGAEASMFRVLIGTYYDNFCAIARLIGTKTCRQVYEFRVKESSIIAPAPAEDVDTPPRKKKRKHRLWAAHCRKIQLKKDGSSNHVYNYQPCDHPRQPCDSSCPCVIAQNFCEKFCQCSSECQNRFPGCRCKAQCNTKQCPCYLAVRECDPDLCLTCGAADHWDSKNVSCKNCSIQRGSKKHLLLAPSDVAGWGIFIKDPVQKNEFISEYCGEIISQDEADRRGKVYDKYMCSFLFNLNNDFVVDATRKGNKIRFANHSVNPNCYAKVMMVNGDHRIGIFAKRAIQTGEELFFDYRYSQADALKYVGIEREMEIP
purified human, His-tagged PRC2 complex, sequence (O75530 whole entry): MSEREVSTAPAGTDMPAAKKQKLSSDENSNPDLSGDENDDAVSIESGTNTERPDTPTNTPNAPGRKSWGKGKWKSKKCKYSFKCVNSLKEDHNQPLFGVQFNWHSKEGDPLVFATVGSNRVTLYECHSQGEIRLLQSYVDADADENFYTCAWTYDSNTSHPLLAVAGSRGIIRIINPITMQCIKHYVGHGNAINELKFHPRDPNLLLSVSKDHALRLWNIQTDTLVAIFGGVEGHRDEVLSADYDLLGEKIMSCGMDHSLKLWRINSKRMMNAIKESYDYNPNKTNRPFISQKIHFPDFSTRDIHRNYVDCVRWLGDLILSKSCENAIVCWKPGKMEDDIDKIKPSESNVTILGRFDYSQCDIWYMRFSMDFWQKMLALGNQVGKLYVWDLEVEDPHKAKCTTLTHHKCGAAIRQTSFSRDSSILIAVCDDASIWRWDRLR
purified human, His-tagged PRC2 complex, sequence (Q15022 whole entry partner): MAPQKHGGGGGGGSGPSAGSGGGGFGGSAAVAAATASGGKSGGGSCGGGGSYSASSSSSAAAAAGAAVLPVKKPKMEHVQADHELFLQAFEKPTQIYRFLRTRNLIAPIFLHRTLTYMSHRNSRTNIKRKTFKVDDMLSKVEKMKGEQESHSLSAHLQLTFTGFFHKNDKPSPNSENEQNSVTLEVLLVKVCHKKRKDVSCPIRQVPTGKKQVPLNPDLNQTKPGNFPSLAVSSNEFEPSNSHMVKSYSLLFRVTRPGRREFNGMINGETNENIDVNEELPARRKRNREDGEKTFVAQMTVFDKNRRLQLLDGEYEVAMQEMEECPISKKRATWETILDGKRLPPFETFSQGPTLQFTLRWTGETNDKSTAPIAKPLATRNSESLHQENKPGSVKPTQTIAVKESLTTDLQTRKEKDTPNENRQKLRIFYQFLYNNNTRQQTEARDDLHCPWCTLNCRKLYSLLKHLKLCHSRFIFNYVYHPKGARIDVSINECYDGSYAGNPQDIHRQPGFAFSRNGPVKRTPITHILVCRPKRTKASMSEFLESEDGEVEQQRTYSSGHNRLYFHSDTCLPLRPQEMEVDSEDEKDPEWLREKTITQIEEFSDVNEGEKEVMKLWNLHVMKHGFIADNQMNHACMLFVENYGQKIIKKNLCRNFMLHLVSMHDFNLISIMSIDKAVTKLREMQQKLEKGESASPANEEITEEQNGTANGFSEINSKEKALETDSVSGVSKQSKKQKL
purified human, His-tagged PRC2 complex, sequence (Q6ZN18 whole entry partner): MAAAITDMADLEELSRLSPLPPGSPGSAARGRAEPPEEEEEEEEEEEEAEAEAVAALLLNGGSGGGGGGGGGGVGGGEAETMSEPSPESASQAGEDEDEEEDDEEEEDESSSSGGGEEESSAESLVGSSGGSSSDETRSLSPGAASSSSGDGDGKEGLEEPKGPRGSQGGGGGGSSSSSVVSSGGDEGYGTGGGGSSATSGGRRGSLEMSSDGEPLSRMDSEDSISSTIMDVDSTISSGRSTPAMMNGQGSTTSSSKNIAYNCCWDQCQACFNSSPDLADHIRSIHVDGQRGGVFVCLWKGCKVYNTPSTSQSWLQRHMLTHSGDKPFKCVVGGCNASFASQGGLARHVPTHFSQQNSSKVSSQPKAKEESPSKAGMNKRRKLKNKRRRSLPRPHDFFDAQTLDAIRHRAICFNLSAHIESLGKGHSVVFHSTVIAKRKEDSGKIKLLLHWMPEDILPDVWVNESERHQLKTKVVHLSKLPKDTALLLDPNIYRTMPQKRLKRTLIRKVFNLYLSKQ
purified human, His-tagged PRC2 complex, sequence (Q09028 whole entry partner): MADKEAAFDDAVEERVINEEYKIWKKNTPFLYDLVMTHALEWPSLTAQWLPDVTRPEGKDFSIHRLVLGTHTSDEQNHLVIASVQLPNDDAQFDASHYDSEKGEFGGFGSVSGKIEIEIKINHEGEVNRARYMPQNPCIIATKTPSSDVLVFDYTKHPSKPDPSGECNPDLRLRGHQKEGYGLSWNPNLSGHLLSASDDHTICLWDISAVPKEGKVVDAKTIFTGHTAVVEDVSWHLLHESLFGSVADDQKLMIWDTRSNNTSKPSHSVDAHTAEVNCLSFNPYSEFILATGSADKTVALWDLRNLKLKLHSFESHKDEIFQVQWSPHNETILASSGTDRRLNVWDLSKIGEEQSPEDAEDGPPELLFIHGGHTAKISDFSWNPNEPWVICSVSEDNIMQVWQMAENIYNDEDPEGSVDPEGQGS

`Cc1cccc(-c2cnc(NCc3c(F)ccc4c3CCO4)n3cc(CN)nc23)c1` [Example 21, 2-(aminomethyl)-N-((5-fluoro-2,3-dihydrobenzofuran-4-yl)methyl)-8-(m-tolyl)imidazo[1,2-c]pyrimidin-5-amine]: the IC50 was 500 to 2000 nM in experiment [1] (setting [4]), 500 to 5000 nM in experiment [2] (setting [5]) and 500 to 5000 nM in experiment [3] (Homo sapiens).

`NCc1cn2c(NCc3c(F)ccc4c3CCO4)ncc(-c3ccccc3Cl)c2n1` [Example 22, 2-(aminomethyl)-8-(2-chlorophenyl)-N-((5-fluoro-2,3-dihydrobenzofuran-4-yl)methyl)imidazo[1,2-c]pyrimidin-5-amine]: the IC50 in experiment [1] (setting [4]) lay within 500 to 2000 nM; in experiment [2] (setting [5]) it was 500 to 5000 nM; in experiment [3] (Homo sapiens), 500 to 5000 nM.

For the compound `Cc1cc(-c2cnc(NCc3cccc4c3CCO4)n3cc(CN)nc23)n(C)n1` [Example 23, 2-(aminomethyl)-N-((2,3-dihydrobenzofuran-4-yl)methyl)-8-(1,3-dimethyl-1H-pyrazol-5-yl)imidazo[1,2-c]pyrimidin-5-amine], the IC50 lay within 500 to 2000 nM in experiment [1] (setting [4]), 500 to 5000 nM in experiment [2] (setting [5]) and 500 to 5000 nM in experiment [3] (Homo sapiens).

As to `Cc1cc(-c2cnc(NCc3c(F)ccc4occc34)n3cc(CN)nc23)n(C)n1` [Example 24], the results for the IC50 in experiment [1] (setting [4]), in experiment [2] (setting [5]) and in experiment [3] (Homo sapiens) were 500 to 2000 nM, 250 to 500 nM and 250 to 500 nM, respectively.

With `Cc1cc(-c2cnc(NCc3c(F)ccc4c3CCO4)n3cc(CNCCS(=O)(=O)F)nc23)n(C)n1` [Example 27, 2-(((8-(1,3-dimethyl-1H-pyrazol-5-yl)-5-(((5-fluoro-2,3-dihydrobenzofuran-4-yl)methyl)amino)imidazo[1,2-c]pyrimidin-2-yl)methyl)amino)ethane-1-sulfonyl fluoride], the IC50 in experiment [1] (IC50, Inhibition of PRC2-mediated Enzymatic Activity) was in the range of 500 to 2000 nM; in experiment [2] (Homo sapiens, Pfeiffer, 96 h), 500 to 5000 nM; in experiment [3] (Homo sapiens), 500 to 5000 nM.

With `Cc1cc(-c2cnc(NCc3c(F)ccc4c3CCO4)n3cc(CN(CCS(=O)(=O)F)CCS(=O)(=O)F)nc23)n(C)n1` [Example 28, 2,2′-(((8-(1,3-dimethyl-1H-pyrazol-5-yl)-5-(((5-fluoro-2,3-dihydrobenzofuran-4-yl)methyl)amino)imidazo[1,2-c]pyrimidin-2-yl)methyl)azanediyl)bis(ethane-1-sulfonylfluoride)], the IC50 in experiment [1] (setting [4]) was 500 to 2000 nM; in experiment [2] (Pfeiffer cells, 96 hours incubation, ELISA) it was 500 to 5000 nM; in experiment [3], 500 to 5000 nM.

Consider `Cn1nccc1-c1cnc(NCc2c(F)ccc3c2CCO3)n2cc(CN3CCC3)nc12` [Example 29, 2-(azetidin-1-ylmethyl)-N-((5-fluoro-2,3-dihydrobenzofuran-4-yl)methyl)-8-(1-methyl-1H-pyrazol-5-yl)imidazo[1,2-c]pyrimidin-5-amine], for which the figures for the IC50 in experiment [1] (setting [4]), in experiment [2] (setting [5]) and in experiment [3] (Homo sapiens) were 500 to 2000 nM, 500 to 5000 nM and 500 to 5000 nM, respectively.

With `Cc1cc(-c2cnc(NCc3c(F)ccc4c3CCO4)n3cc(CNC4CCC4)nc23)n(C)n1` [Example 30, 2-((cyclobutylamino)methyl)-8-(1,3-dimethyl-1H-pyrazol-5-yl)-N-((5-fluoro-2,3-dihydrobenzofuran-4-yl)methyl)imidazo[1,2-c]pyrimidin-5-amine], the IC50 in experiment [1] (setting [4]) is 500 to 2000 nM; in experiment [2] (setting [5]) it was 250 to 500 nM; in experiment [3] (Homo sapiens), below 250 nM.

For `Cc1cc(-c2cnc(NCc3c(F)ccc4c3CCO4)n3cc(CN4CC(O)C4)nc23)n(C)n1` [Example 31, 1-((8-(1,3-dimethyl-1H-pyrazol-5-yl)-5-(((5-fluoro-2,3-dihydrobenzofuran-4-yl)methyl)amino)imidazo[1,2-c]pyrimidin-2-yl)methyl)azetidin-3-ol], the IC50 fell in the range of 500 to 2000 nM in experiment [1] (setting [4]), 500 to 5000 nM in experiment [2] (setting [5]) and 500 to 5000 nM in experiment [3] (Homo sapiens).

With `Cc1cc(-c2cnc(NCc3c(F)ccc4c3CCO4)n3cc(CNCc4ccccc4)nc23)n(C)n1` [Example 32, 2-((benzylamino)methyl)-8-(1,3-dimethyl-1H-pyrazol-5-yl)-N-((5-fluoro-2,3-dihydrobenzofuran-4-yl)methyl)imidazo[1,2-c]pyrimidin-5-amine], the figures for the IC50 in experiment [1] (setting [4]), in experiment [2] (setting [5]) and in experiment [3] (Homo sapiens) were 500 to 2000 nM, 250 to 500 nM and below 250 nM, respectively.

Values taken from patent publication US12252493B2, “Imidazo[1,2-c]pyrimidine derivatives as PRC2 inhibitors for treating cancer” (Mirati Therapeutics, Inc., priority 2019, dated 2025).
